Usually IC50 stands for the point on the concentration scale where inhibition reaches its midpoint.

We go through 27 molecules from patent US20240270699A1, “COMPOUNDS HAVING N-ARYLPYRIMIDIN-2-AMINE DERIVATIVES AS THERAPEUTIC AGENTS” (Lomond Therapeutics, Inc., priority 2021, published 2024).

Bounds are passed on as bounds.

The target of one assay is T1, recombinant HPK1 protein (Homo sapiens, UniProt Q92918).
T1 construct: purchased Promega V6398
T1 sequence (Q92918 1-346 limits assumed): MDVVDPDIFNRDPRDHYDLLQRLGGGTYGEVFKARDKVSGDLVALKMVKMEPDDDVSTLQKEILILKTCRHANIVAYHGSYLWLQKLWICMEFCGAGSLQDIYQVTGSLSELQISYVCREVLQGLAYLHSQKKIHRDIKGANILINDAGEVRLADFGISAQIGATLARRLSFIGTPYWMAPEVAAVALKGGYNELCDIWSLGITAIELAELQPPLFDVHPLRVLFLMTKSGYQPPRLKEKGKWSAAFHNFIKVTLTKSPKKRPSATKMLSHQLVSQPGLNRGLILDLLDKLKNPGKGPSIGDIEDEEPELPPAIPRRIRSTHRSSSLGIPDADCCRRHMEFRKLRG
The experiment in a line: Primary assay of HPK1 enzymatic activity inhibition (ADP-Glo luminescence). It is filed as biochemical. The note with it: recombinant HPK1, MBP substrate, 1 hour at room temperature.

Another assay has as its system Jurkat cells. The experiment in a line: IL-2 release Jurkat assay (anti-CD3/anti-CD28 stimulation, IL-2 ELISA). It is filed as cell-based, human. The note with it: activation with 400 ng/mL aCD3 + 400 ng/mL aCD28, 24 hours. A general note: An ELISA detects its analyte on a solid surface through an enzyme-linked reagent.

Consider `CCOC(=O)c1cnc(Nc2ccc(C(=O)N(C)C)cc2)nc1N[C@H](CO)c1ccccc1` [Compound 47, Ethyl 2-[4-(dimethylcarbamoyl)anilino]-4-[[(1S)-2-hydroxy-1-phenyl-ethyl]amino]pyrimidine-5-carboxylate], for which the IC50 at recombinant HPK1 protein was in the range of 50 to 200 nM. The “IL-2, pg/mL stimulated” value in the assay on Jurkat cells (Table C: Jurkat, 6 μM of tested compounds, stimulated vehicle = A) is reported as “B (50 pg/mL≤IL-2<100 pg/mL)”. On to `CN1CCc2cc(Nc3ncc(-c4nnco4)c(N[C@H](CO)c4ccccc4)n3)ccc2C1=O` [Compound 89, 6-[[4-[[(1S)-2-hydroxy-1-phenyl-ethyl]amino]-5-(1,3,4-oxadiazol-2-yl)pyrimidin-2-yl]amino]-2-methyl-3,4-dihydroisoquinolin-1-one], for which, at recombinant HPK1 protein, the half-maximal inhibitory concentration (IC50) was less than 50 nM. On the same count and under the same terms, the result for `CCOC(=O)c1cnc(Nc2ccc(C(=O)NC)c(C)c2)nc1N[C@H](CO)c1ccccc1` [Compound 48, Ethyl 4-[[(1S)-2-hydroxy-1-phenyl-ethyl]amino]-2-[3-methyl-4-(methylcarbamoyl)anilino]pyrimidine-5-carboxylate] reads no less than 500 nM. Turning to `CCOC(=O)c1cnc(Nc2ccc3c(c2)C(=O)NC(C(C)C)C(=O)N3)nc1N[C@H](CO)c1ccccc1` (stereo partly drawn) [Compound 467, Ethyl 4-[[(1S)-2-hydroxy-1-phenyl-ethyl]amino]-2-[(3-isopropyl-2,5-dioxo-3,4-dihydro-1H-1,4-benzodiazepin-7-yl)amino]pyrimidine-5-carboxylate], at recombinant HPK1 protein, the IC50 was no less than 500 nM. Still for that read-out and setting: the result for `CS(=O)(=O)c1ccc(Nc2ncc3[nH]c(=O)n([C@H](CO)c4ccccc4)c3n2)cc1F` [Compound 577, 2-(3-fluoro-4-methylsulfonyl-anilino)-9-[(1S)-2-hydroxy-1-phenyl-ethyl]-7H-purin-8-one] reads no less than 500 nM; that for `Cc1noc(-c2cnc(Nc3ccc4c(c3)CCN(C)C4=O)nc2N[C@H](CO)c2ccccc2)n1` [Compound 183, 6-[[4-[[(1S)-2-hydroxy-1-phenyl-ethyl]amino]-5-(3-methyl-1,2,4-oxadiazol-5-yl)pyrimidin-2-yl]amino]-2-methyl-3,4-dihydroisoquinolin-1-one], less than 50 nM; that for `CCOC(=O)c1cnc(N(c2ccc3c(c2)CCCNC3=O)c2ncc(C(=O)OCC)c(N[C@H](CO)c3ccccc3)n2)nc1N[C@H](CO)c1ccccc1` [Compound 576, ethyl 2-[[5-ethoxycarbonyl-4-[[(1S)-2-hydroxy-1-phenyl-ethyl]amino]pyrimidin-2-yl]-(1-oxo-2,3,4,5-tetrahydro-2-benzazepin-7-yl)amino]-4-[[(1S)-2-hydroxy-1-phenyl-ethyl]amino]pyrimidin-5-carboxylate], 50 to 200 nM. On the same count and under the same terms, the result for `CCOC(=O)c1cnc(Nc2ccc(S(C)(=O)=O)c(F)c2)nc1N1Cc2ccccc2CC1CO` (stereo not shown) [Compound 388, ethyl 2-(3-fluoro-4-methylsulfonyl-anilino)-4-[3-(hydroxymethyl)-3,4-dihydro-1H-isoquinolin-2-yl]pyrimidine-5-carboxylate] reads no less than 500 nM; that for `CS(=O)(=O)c1ccc(Nc2ncc(C(=O)O)c(N[C@H](CO)c3ccccc3)n2)cc1F` [Compound 42, 2-{[3-fluoro-4-(methylsulfonyl)phenyl]amino}-4-{[(1S)-2-hydroxy-1-phenylethyl]amino}pyrimidine-5-carboxylic Acid], no less than 500 nM; that for `O=C(NC1CCCC1)c1cnc(Nc2ccc(C(F)(F)F)c(Cl)c2)nc1N[C@H](CO)c1ccccc1` [Compound 472, 2-{[3-chloro-4-(trifluoromethyl)phenyl]amino}-N-cyclopentyl-4-{[(1S)-2-hydroxy-1-phenylethyl]amino}pyrimidine-5-carboxamide], no less than 500 nM. Turning to `CCOC(=O)c1cnc(Nc2ccc(C(=O)O)c(OC)c2)nc1N[C@H](CO)c1ccccc1` [Compound 62, 4-[[5-ethoxycarbonyl-4-[[(1S)-2-hydroxy-1-phenyl-ethyl]amino]pyrimidin-2-yl]amino]-2-methoxy-benzoic acid], the IC50 on recombinant HPK1 protein fell in the range of 200 to 500 nM. With `Cc1noc(-c2cnc(Nc3ccc4c(c3)CCN(COC(=O)C(C)(C)C)C4=O)nc2N[C@H](CO)c2ccccc2)n1` [Compound 581, [6-[[4-[[(1S)-2-hydroxy-1-phenyl-ethyl]amino]-5-(3-methyl-1,2,4-oxadiazol-5-l)pyrimidin-2-yl]amino]-1-oxo-3,4-dihydroisoquinolin-2-yl]methyl 2,2-dimethylpropanoate], in the assay with Jurkat cells (Table G: Jurkat, 1.0 μM of tested compounds), the “IL-2, pg/mL stimulated” value was “D (150 pg/mL≤IL-2)”. Consider `C=Cc1noc(-c2cnc(Nc3ccc4c(c3)CCN(COCC[Si](C)(C)C)C4=O)nc2N[C@H](CO)c2ccccc2)n1` [Compound 580, 6-[[4-[[(1S)-2-hydroxy-1-phenyl-ethyl]amino]-5-(3-vinyl-1,2,4-oxadiazol-5-yl)pyrimidin-2-yl]amino]-2-(2-trimethylsilylethoxymethyl)-3,4-dihydroisoquinolin-1-one], for which the IC50 at recombinant HPK1 protein was less than 50 nM. Same read-out and setting: the result for `CCOC(=O)c1cnc(Nc2ccc3c(c2)CNC3=O)nc1N[C@H](CO)c1ccccc1` [Compound 565, ethyl 4-[[(1S)-2-hydroxy-1-phenyl-ethyl]amino]-2-[(1-oxoisoindolin-5-yl)amino]pyrimidine-5-carboxylate] reads less than 50 nM; that for `CCOC(=O)c1cnc(Nc2ccc3c(c2)CCN(C(C)C)C3=O)nc1N[C@H](CO)c1ccccc1` [Compound 316, Ethyl 4-[[(1S)-2-hydroxy-1-phenyl-ethyl]amino]-2-[(2-isopropyl-1-oxo-3,4-dihydroisoquinolin-6-yl)amino]pyrimidine-5-carboxylate], no less than 500 nM; that for `CCOC(=O)c1cnc(Nc2ccc(S(C)(=O)=O)cc2OC)nc1N[C@H](CO)c1ccccc1` [Compound 299, Ethyl 4-{[(1S)-2-hydroxy-1-phenylethyl]amino}-2-{[2-methoxy-4-(methylsulfonyl)phenyl]amino}pyrimidine-5-carboxylate], no less than 500 nM. The same measure, in the same setting: the result for `CS(=O)(=O)c1ccc(Nc2ncc(C#N)c(N[C@H](CO)c3ccccc3)n2)cc1F` [Compound 2, 2-{[3-fluoro-4-(methylsulfonyl)phenyl]amino}-4-{[(1S)-2-hydroxy-1-phenylethyl]amino}pyrimidine-5-carbonitrile] reads no less than 500 nM.

`CCOC(=O)c1cnc(Nc2ccc(C(=O)N(C)C)c(OC)c2)nc1N[C@H](CO)c1ccccc1` [Compound 247, Ethyl 2-[4-(dimethylcarbamoyl)-3-methoxy-anilino]-4-[[(1S)-2-hydroxy-1-phenyl-ethyl]amino]pyrimidine-5-carboxylate]: the IC50 on recombinant HPK1 protein lay within 200 to 500 nM. For the molecule `CS(=O)(=O)c1ccc(Nc2ncc(C(=O)N3CCCC3)c(N[C@H](CO)c3ccccc3)n2)cc1F` [Compound 371, [2-(3-fluoro-4-methylsulfonyl-anilino)-4-[[(1S)-2-hydroxy-1-phenyl-ethyl]amino]pyrimidin-5-yl]-pyrrolidin-1-yl-methanone], the IC50 at recombinant HPK1 protein was no less than 500 nM. Regarding `CCOC(=O)c1cnc(Nc2ccc3c(c2)NC(=O)CCC3)nc1N[C@H](CO)c1ccccc1` [Compound 574, ethyl 4-[[(1S)-2-hydroxy-1-phenyl-ethyl]amino]-2-[(2-oxo-1,3,4,5-tetrahydro-1-benzazepin-8-yl)amino]pyimidine-5-carboxylate], at recombinant HPK1 protein, the IC50 was no less than 500 nM. Same read-out and setting: with `CCOC(=O)c1cnc(Nc2ccc(S(C)(=O)=O)c(F)c2)nc1N[C@H](C)c1ccccc1` [Compound 97, ethyl 2-(3-fluoro-4-methylsulfonyl-anilino)-4-[[(1R)-1-phenylethyl]amino]pyrimidine-5-carboxylate] the figure was no less than 500 nM; with `CCOC(=O)c1cnc(Nc2ccc(C(F)(F)F)c(Cl)c2)nc1N[C@H](CO)c1ccccc1` [Compound 248, Ethyl 2-{[3-chloro-4-(trifluoromethyl)phenyl]amino}-4-{[(1S)-2-hydroxy-1-phenylethyl]amino}pyrimidine-5-carboxylate], no less than 500 nM. Same read-out and setting: with `N#Cc1cnc(Nc2ccc3c(c2)CCNC3=O)nc1N[C@H](CO)c1ccccc1` [Compound 567, 4-[[(1S)-2-hydroxy-1-phenyl-ethyl]amino]-2-[(1-oxo-3,4-dihydro-2H-isoquinolin-6-yl)amino]pyrimidine-5-carbonitrile] the figure was no less than 500 nM; with `O=C(NC1CCCC1)c1cnc(Nc2ccc(F)c(-c3ccccc3)c2)nc1N[C@H](CO)c1ccccc1` [Compound 440, N-cyclopentyl-2-[(6-fluorobiphenyl-3-yl)amino]-4-{[(1S)-2-hydroxy-1-phenylethyl]amino}pyrimidine-5-carboxamide], no less than 500 nM. Same read-out and setting: with `CCOC(=O)c1cnc(Nc2ccc(S(C)(=O)=O)c(F)c2)nc1N[C@H]1c2ccccc2C[C@H]1O` [Compound 298, ethyl 2-(3-fluoro-4-methylsulfonyl-anilino)-4-[[(1S,2R)-2-hydroxyindan-1-yl]amino]pyrimidine-5-carboxylate] the figure was no less than 500 nM; with `CNC(=O)c1cnc(Nc2ccc(C(F)(F)F)c(Cl)c2)nc1N[C@H](CO)c1ccccc1` [Compound 132, 2-{[3-chloro-4-(trifluoromethyl)phenyl]amino}-4-{[(1S)-2-hydroxy-1-phenylethyl]amino}-N-methylpyrimidine-5-carboxamide], no less than 500 nM; with `CN(CCO)C(=O)c1cnc(Nc2ccc(S(C)(=O)=O)c(F)c2)nc1N[C@H](CO)c1ccccc1` [Compound 402, 2-(3-fluoro-4-methylsulfonyl-anilino)-N-(2-hydroxyethyl)-4-[[(1S)-2-hydroxy-1-phenyl-ethyl]amino]-N-methyl-pyrimidine-5-carboxamide], no less than 500 nM.
